Measurements published in patent US20150353495A1 (PORTOLA PHARMACEUTICALS, INC., priority 2010, published 2015).

Tests used:
Assay type in all cases: biochemical
[1] = biological target: T1, JAK2 (Homo sapiens, UniProt O60674); test: Z'-LYTE kinase assay JAK2
T1 construct: 5 μl of catalytic domain recombinant Kinase enzyme+Tyr peptide substrate (Invitrogen, CA); purchased Invitrogen
Procedure, shortened: (§1)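 Z′-LYTE FRET, Tyr6 peptide, recombinant catalytic domain + ATP, 1 h RT, 1% DMSO final, duplicates; protease development 1 h RT; fluorescence read.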

[2] = biological target: T2, JAK1 (Homo sapiens, UniProt P23458); test: Z'-LYTE kinase assay JAK1
T2 construct: 5 μl of catalytic domain recombinant Kinase enzyme+Tyr peptide substrate (Invitrogen, CA); purchased Invitrogen
T2 sequence (P23458 875-1153 limits assumed): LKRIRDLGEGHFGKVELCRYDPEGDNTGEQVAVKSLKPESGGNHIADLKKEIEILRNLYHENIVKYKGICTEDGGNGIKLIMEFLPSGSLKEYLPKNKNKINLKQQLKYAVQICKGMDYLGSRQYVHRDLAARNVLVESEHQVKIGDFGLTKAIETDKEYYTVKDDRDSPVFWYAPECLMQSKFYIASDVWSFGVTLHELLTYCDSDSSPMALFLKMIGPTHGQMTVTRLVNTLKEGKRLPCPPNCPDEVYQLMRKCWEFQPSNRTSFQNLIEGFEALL
Procedure, shortened: as §1

[3] = biological target: T3, JAK3 (Homo sapiens, UniProt P52333); test: Z'-LYTE kinase assay JAK3
T3 construct: 5 μl of catalytic domain recombinant Kinase enzyme+Tyr peptide substrate (Invitrogen, CA); purchased Invitrogen
T3 sequence (P52333 822-1111 limits assumed): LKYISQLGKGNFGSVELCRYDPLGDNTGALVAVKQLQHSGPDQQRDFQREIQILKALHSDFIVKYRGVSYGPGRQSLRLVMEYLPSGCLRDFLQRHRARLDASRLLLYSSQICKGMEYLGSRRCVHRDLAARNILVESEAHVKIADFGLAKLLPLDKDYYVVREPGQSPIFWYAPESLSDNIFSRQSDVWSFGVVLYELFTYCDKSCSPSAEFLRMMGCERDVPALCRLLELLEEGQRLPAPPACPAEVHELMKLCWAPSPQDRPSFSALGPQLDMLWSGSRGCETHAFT
Procedure, shortened: as §1

T1 sequence (O60674 849-1124 limits assumed): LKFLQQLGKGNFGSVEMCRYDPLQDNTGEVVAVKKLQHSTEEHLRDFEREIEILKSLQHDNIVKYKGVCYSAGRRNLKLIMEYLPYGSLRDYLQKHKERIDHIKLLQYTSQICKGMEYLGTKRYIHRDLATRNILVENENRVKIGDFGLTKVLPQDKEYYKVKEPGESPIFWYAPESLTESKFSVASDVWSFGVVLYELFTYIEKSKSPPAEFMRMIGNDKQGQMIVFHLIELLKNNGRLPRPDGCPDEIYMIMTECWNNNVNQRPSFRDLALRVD

IC50 [1]	IC50 [2]	IC50 [3]	SMILES
> 1000 nM	> 1000 nM	1 to 10 nM	CCC(=O)N1CCC(c2ccc(Nc3cc(NCc4cccc(-c5cccnc5)c4)c(C(N)=O)cn3)cc2)CC1 [Example 416, 6-(4-(1-propionylpiperidin-4-yl)phenylamino)-4-(3-(pyridine-3-yl)benzylamino)nicotinamide]
100 to 1000 nM	100 to 1000 nM	1 to 10 nM	CN(C)S(=O)(=O)Cc1ccc(Nc2cc(NCc3cccc(-c4ccncc4)c3)c(C(N)=O)cn2)cc1 [Example 417, 6-(4-((N,N-dimethylsulfamoyl)methyl)phenylamino)-4-(3-(pyridine-4-yl)benzylamino)nicotinamide]
100 to 1000 nM	100 to 1000 nM	1 to 10 nM	CS(=O)(=O)Cc1ccc(Nc2cc(NCc3cccc(-c4ccncc4)c3)c(C(N)=O)cn2)cc1 [Example 418, 6-(4-(methylsulfonylmethyl)phenylamino)-4-(3-(pyridine-4-yl)benzylamino)nicotinamide]
100 to 1000 nM	> 1000 nM	1 to 10 nM	CN(C)C(=O)C1CCN(c2ccc(Nc3cc(NCc4cccc(-c5ccncc5)c4)c(C(N)=O)cn3)cc2)CC1 [Example 419, 6-(4-(4-(dimethylcarbamoyl)piperidin-1-yl)phenylamino)-4-(3-(pyridine-4-yl)benzylamino)nicotinamide]
100 to 1000 nM	> 1000 nM	10 to 100 nM	CN(C)C(=O)c1ccc(Nc2cc(NCc3cccc(-c4ccccn4)c3)c(C(N)=O)cn2)cc1 [Example 421, 6-(4-(dimethylcarbamoyl)phenylamino)-4-(3-(pyridine-2-yl)benzylamino)nicotinamide]
100 to 1000 nM	> 1000 nM	10 to 100 nM	CN(C)C(=O)c1ccc(Nc2cc(NCc3cccc(-n4cccn4)c3)c(C(N)=O)cn2)cc1 [Example 422, 4-(3-(1H-pyrazol-1-yl)benzylamino)-6-(4-(dimethylcarbamoyl)phenylamino)nicotinamide]
100 to 1000 nM	> 1000 nM	10 to 100 nM	NC(=O)c1cnc(Nc2ccc(S(=O)(=O)N3CCC3)cc2)nc1NCc1ccccc1 [Example 434, 2-(4-(azetidin-1-ylsulfonyl)phenylamino)-4-(benzylamino)pyrimidine-5-carboxamide]
100 to 1000 nM	100 to 1000 nM	10 to 100 nM	NC(=O)c1cnc(Nc2ccc(F)c(C(=O)N3CCC3)c2)cc1NCc1ccccc1 [Example 439, 6-(3-(azetidine-1-carbonyl)-4-fluorophenylamino)-4-(benzylamino)nicotinamide]
100 to 1000 nM	100 to 1000 nM	10 to 100 nM	CN(C)C(=O)c1cc(Nc2cc(NCc3ccccc3)c(C(N)=O)cn2)ccc1N(C)C [Example 440, 4-(benzylamino)-6-(4-(dimethylamino)-3-(dimethylcarbamoyl)phenylamino)nicotinamide]
100 to 1000 nM	> 1000 nM	10 to 100 nM	COc1cc(Nc2cc(NC[C@H]3CCCN(C(C)=O)C3)c(C(N)=O)cn2)ccc1C(=O)N(C)C [Example 441, (R)-4-((1-acetylpiperidin-3-yl)methylamino)-6-(4-(dimethylcarbamoyl)-3-methoxyphenylamino)nicotinamide]
100 to 1000 nM	> 1000 nM	10 to 100 nM	CC(=O)N1CCC[C@H](CNc2cc(Nc3ccc(C(=O)N(C)C)c(Cl)c3)ncc2C(N)=O)C1 [Example 442, (R)-4-((1-acetylpiperidin-3-yl)methylamino)-6-(3-chloro-4-(dimethylcarbamoyl)phenylamino)nicotinamide]
> 1000 nM	> 1000 nM	100 to 1000 nM	CC(=O)N1CCC[C@H](CNc2cc(Nc3ccc(F)c(C(=O)N4CCC4)c3)ncc2C(N)=O)C1 [Example 444, (R)-4-((1-acetylpiperidin-3-yl)methylamino)-6-(3-(azetidine-1-carbonyl)-4-fluorophenylamino)nicotinamide]
100 to 1000 nM	> 1000 nM	100 to 1000 nM	CC(=O)N1CCC[C@H](CNc2cc(Nc3ccc(C(=O)N(C)C)c(N(C)C)c3)ncc2C(N)=O)C1 [Example 445, (R)-4-((1-acetylpiperidin-3-yl)methylamino)-6-(3-(dimethylamino)-4-(dimethylcarbamoyl)phenylamino)nicotinamide]
10 to 100 nM	100 to 1000 nM	< 1 nM	Cc1cc(Nc2cc(NCc3cccc(F)c3F)c(C(N)=O)cn2)ccc1C(=O)N1CCC1 [Example 454, 6-(4-(azetidine-1-carbonyl)-3-methylphenylamino)-4-(2,3-difluorobenzylamino)nicotinamide]
10 to 100 nM	100 to 1000 nM	1 to 10 nM	Cc1cc(Nc2cc(NCc3cccc(F)c3F)c(C(N)=O)cn2)ccc1C(=O)N1CCOCC1 [Example 455, 4-(2,3-difluorobenzylamino)-6-(3-methyl-4-(morpholine-4-carbonyl)phenylamino)nicotinamide]
10 to 100 nM	100 to 1000 nM	< 1 nM	Cc1cc(Nc2cc(NCc3cccc(F)c3F)c(C(N)=O)cn2)ccc1C(=O)N1CCCC1 [Example 456, 4-(2,3-difluorobenzylamino)-6-(3-methyl-4-(pyrrolidine-1-carbonyl)phenylamino)nicotinamide]

IC50 [1]	IC50 [2]	IC50 [3]	SMILES
10 to 100 nM	100 to 1000 nM	1 to 10 nM	Cc1cc(Nc2cc(NCc3cccc4ccsc34)c(C(N)=O)cn2)ccc1C(=O)N1CCOCC1 [Example 459, 4-(benzo[b]thiophen-7-ylmethylamino)-6-(3-methyl-4-(morpholine-4-carbonyl)phenylamino)nicotinamide]
1 to 10 nM	1 to 10 nM	< 1 nM	Cc1cc(Nc2cc(NCc3cccc4[nH]ccc34)c(C(N)=O)cn2)ccc1C(=O)N1CCC1 [Example 460, 4-((1H-indol-4-yl)methylamino)-6-(4-(azetidine-1-carbonyl)-3-methylphenylamino)nicotinamide]
1 to 10 nM	1 to 10 nM	< 1 nM	Cc1cc(Nc2cc(NCc3cccc4[nH]ccc34)c(C(N)=O)cn2)ccc1C(=O)N1CCOCC1 [Example 462, 4-((1H-indol-4-yl)methylamino)-6-(3-methyl-4-(morpholine-4-carbonyl)phenylamino)nicotinamide]
10 to 100 nM	> 1000 nM	1 to 10 nM	Cc1cc(Nc2cc(NCc3cccc4cc[nH]c34)c(C(N)=O)cn2)ccc1C(=O)N1CCC1 [Example 463, 4-((1H-indol-7-yl)methylamino)-6-(4-(azetidine-1-carbonyl)-3-methylphenylamino)nicotinamide]
100 to 1000 nM	> 1000 nM	1 to 10 nM	COC(=O)N(C)c1ccc(Nc2cc(NCc3cccc4ccsc34)c(C(N)=O)cn2)cc1 [Example 465, methyl 4-(4-(benzo[b]thiophen-7-ylmethylamino)-5-carbamoylpyridin-2-ylamino)phenyl(methyl)carbamate]
100 to 1000 nM	100 to 1000 nM	1 to 10 nM	CCC(=O)N(C)c1ccc(Nc2cc(NCc3cccc4ccsc34)c(C(N)=O)cn2)cc1 [Example 466, 4-(benzo[b]thiophen-7-ylmethylamino)-6-(4-(N-methylpropionamido)phenylamino)nicotinamide]
100 to 1000 nM	100 to 1000 nM	10 to 100 nM	CN(C(=O)C1CC1)c1ccc(Nc2cc(NCc3cccc4ccsc34)c(C(N)=O)cn2)cc1 [Example 467, 4-(benzo[b]thiophen-7-ylmethylamino)-6-(4-(N-methylcyclopropanecarboxamido)phenylamino)nicotinamide]
10 to 100 nM	100 to 1000 nM	1 to 10 nM	CC(=O)N(C)c1ccc(Nc2cc(NCc3cccc4ccsc34)c(C(N)=O)cn2)cc1 [Example 468, 4-(benzo[b]thiophen-7-ylmethylamino)-6-(4-(N-methylacetamido)phenylamino)nicotinamide]
10 to 100 nM	10 to 100 nM	1 to 10 nM	CC(=O)N(C)c1ccc(Nc2cc(NCc3cccc4[nH]ccc34)c(C(N)=O)cn2)cc1 [Example 469, 4-((1H-indol-4-yl)methylamino)-6-(4-(N-methylacetamido)phenylamino)nicotinamide]
100 to 1000 nM	> 1000 nM	10 to 100 nM	CC(=O)N(C)c1ccc(Nc2cc(NCc3cccc4cc[nH]c34)c(C(N)=O)cn2)cc1 [Example 470, 4-((1H-indol-7-yl)methylamino)-6-(4-(N-methylacetamido)phenylamino)nicotinamide]
10 to 100 nM	10 to 100 nM	1 to 10 nM	CC(=O)Nc1ccc(Nc2cc(NCc3cccc4ccsc34)c(C(N)=O)cn2)cc1 [Example 471, 6-(4-acetamidophenylamino)-4-(benzo[b]thiophen-7-ylmethylamino)nicotinamide]
10 to 100 nM	1 to 10 nM	< 1 nM	CC(=O)Nc1ccc(Nc2cc(NCc3cccc4[nH]ccc34)c(C(N)=O)cn2)cc1 [Example 472, 4-((1H-indol-4-yl)methylamino)-6-(4-acetamidophenylamino)nicotinamide]
100 to 1000 nM	100 to 1000 nM	10 to 100 nM	CC(=O)Nc1ccc(Nc2cc(NCc3cccc4cc[nH]c34)c(C(N)=O)cn2)cc1 [Example 473, 4-((1H-indol-7-yl)methylamino)-6-(4-acetamidophenylamino)nicotinamide]
10 to 100 nM	10 to 100 nM	1 to 10 nM	COC(=O)N(C)c1ccc(Nc2cc(NCc3cccc4[nH]ccc34)c(C(N)=O)cn2)cc1 [Example 474, methyl 4-(4-((1H-indol-4-yl)methylamino)-5-carbamoylpyridin-2-ylamino)phenyl(methyl)carbamate]
10 to 100 nM	10 to 100 nM	1 to 10 nM	CCC(=O)N(C)c1ccc(Nc2cc(NCc3cccc4[nH]ccc34)c(C(N)=O)cn2)cc1 [Example 475, 4-((1H-indol-4-yl)methylamino)-6-(4-(N-methylpropionamido)phenylamino)nicotinamide]
